Measurements taken from paper PMC7966384, “In vivo and in vitro reconstitution of unique key steps in cystobactamid antibiotic biosynthesis” (Nature Communications, 2021).

How the values were obtained:
CysH = target: T1, CysH (Cystobacter sp. Cbv34, UniProt A0A0H4NUD7); assay: intact protein ESI-MS, loading onto T domain; format: biochemical; details: 1 mM ATP, 10 mM MgCl2, pH 7.5, room temperature; covalent (T domain thioester); 1 mM amino acid, 5 µM protein
T1 construct: full-length A-T module with 38 kDa AMDH domain inserted; E. coli BL21(DE3), pHisSUMOTEV, N-terminal 6xHis tag, TEV protease treated
T1 sequence (A0A0H4NUD7 entry or part of it): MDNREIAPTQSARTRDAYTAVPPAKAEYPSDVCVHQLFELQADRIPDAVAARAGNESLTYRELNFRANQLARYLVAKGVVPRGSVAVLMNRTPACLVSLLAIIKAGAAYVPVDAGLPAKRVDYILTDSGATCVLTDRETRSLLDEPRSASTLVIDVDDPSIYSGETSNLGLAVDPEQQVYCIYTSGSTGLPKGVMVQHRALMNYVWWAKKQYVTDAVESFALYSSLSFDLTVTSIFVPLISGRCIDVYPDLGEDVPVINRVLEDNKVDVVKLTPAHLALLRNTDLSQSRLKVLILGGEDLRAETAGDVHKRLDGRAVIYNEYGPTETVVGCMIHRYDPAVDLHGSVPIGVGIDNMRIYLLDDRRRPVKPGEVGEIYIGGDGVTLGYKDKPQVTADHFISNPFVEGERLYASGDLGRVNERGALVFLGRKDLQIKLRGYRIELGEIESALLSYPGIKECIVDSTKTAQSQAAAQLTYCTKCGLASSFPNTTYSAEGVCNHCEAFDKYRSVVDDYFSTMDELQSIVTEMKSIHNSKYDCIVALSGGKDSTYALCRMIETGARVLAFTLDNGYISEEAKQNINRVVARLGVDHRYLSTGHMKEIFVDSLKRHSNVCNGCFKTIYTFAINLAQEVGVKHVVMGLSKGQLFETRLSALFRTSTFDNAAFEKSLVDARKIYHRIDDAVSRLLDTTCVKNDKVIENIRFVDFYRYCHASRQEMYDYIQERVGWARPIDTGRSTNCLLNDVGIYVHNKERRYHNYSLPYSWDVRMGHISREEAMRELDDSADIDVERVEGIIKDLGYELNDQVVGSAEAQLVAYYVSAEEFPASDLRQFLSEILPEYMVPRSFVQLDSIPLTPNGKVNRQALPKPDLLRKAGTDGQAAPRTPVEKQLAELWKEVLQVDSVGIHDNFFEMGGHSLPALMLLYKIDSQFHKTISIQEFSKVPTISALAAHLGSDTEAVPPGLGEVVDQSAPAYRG

CysH∆AMDH = target: T2, CysH∆AMDH (Cystobacter sp. Cbv34, UniProt A0A0H4NUD7); assay: intact protein ESI-MS, loading onto T domain; format: biochemical; details: 1 mM ATP, 10 mM MgCl2, pH 7.5, room temperature; covalent (T domain thioester); 1 mM amino acid, 5 µM protein
T2 construct: E. coli BL21(DE3)
T2 sequence (A0A0H4NUD7 entry or part of it): as above

| SMILES | intact protein ESI-MS, loading onto T domain (CysH) | intact protein ESI-MS, loading onto T domain (CysH∆AMDH) |
| --- | --- | --- |
| NC(=O)[C@@H](N)CC(=O)O [L-isoasparagine] | we also observed loading of L-glutamine, β-cyano-L-alanine, and L-isoasparagine | – |
| NC(=O)C[C@H](N)C(=O)O [L-asparagine] | L-asparagine was favored as substrate by CysH | Incubation of CysH∆AMDH with L-asparagine only resulted in substrate loading |
